The test system of series [1] is rat livers.
Description: (§1) Each compound was delivered orally on a daily basis at a high dose (tox dose) and a 1/10 low dose (mode dose) for up to 14 days. Five male rats/dose/time were randomly assigned to sacrifice on days 1, 3, 7, and 14.
(§2) In order to construct in vivo models, the pathology of each sample had to be determined. Pathology was assigned to each liver sample by the pathologists at Bayer's Stillwell, Kans. facility. Criteria for inclusion of a compound into a particular mode included the following: • i.
In series [2] the test system is liver. Conditions: once converted to reactive metabolites; cited from earlier work.
The subject of series [3] is rat livers. Put plainly: Induction of Zone 3 Necrosis in vivo, liver pathology annotation. Particulars: for Zone 3 Necrosis in vivo: Pathology Present: sampled 1, 3, 7, 14 d.
Description: as §1, §2
In series [4] the test system is liver. The series is described as follows: In vivo pathology annotation: Hypertrophy. Conditions: in vivo compound annotation. Further details: species or system rat. From the text:
Hypertrophy: Increase in cell size and liver weight. • iv. […] Steatosis: Increase in lipid accumulation or “vacuolar degeneration.” • vii. […] Two approaches were used.

Series [5] concerns liver. Conditions: rats, through a sequence of events that begin with necrosis; cited from earlier work.
Where [6] appears, read: rat primary hepatocytes, 250 microM.
[7] abbreviates: rat primary hepatocytes, 100 microM.
Setting [8] is: rat primary hepatocytes, 40 microM.
The mark [9] stands for this setting: rat primary hepatocytes, 20 microM.
The mark [10] stands for this setting: rat primary hepatocytes, 1000 microM.
The mark [11] stands for this setting: rat primary hepatocytes, 2 microM.
Setting [12] is: rat primary hepatocytes, 50 microM.

Data on 49 compounds can be found in US7060444B1, “Zone 3 necrosis associated markers and method of use thereof” (CuraGen Corporation, priority 2002, dated 2006).

Read-outs that look alike come from different tables or passages of the source.

Consider `Brc1cccc(Br)c1` [1,3-Dibromobenzene], for which the “Zone 3 Necrosis in vivo: Pathology Present” value with rat livers [1] (male) was 1 d. For the same compound, the “Zone 3 Necrosis Pathology” value with Rat primary hepatocytes (setting [6]) was “Present”.

On to `Clc1ccc(Cl)cc1` [1,4-dichlorobenzene], for which the “Zone 3 Necrosis Pathology” value in the series with Rat primary hepatocytes (setting [7]) is reported as “Absent”.

Regarding `Cc1cc(N=Nc2ccccc2)ccc1N(C)C` [3-methyl-4-(dimethylamino)azobenzene], the “Zone 3 Necrosis Pathology” value in the series with Rat primary hepatocytes (rat primary hepatocytes, 1.6 microM) is “Absent”.

For the compound `Cc1ccc2cc3c(ccc4ccccc43)c3c2c1CC3` [3-methylcholanthrene], the “Zone 3 Necrosis Pathology” value in the series with Rat primary hepatocytes (setting [8]) is “Absent”.

For the compound `CC(=O)Nc1ccc(O)cc1` [Acetaminophen], in the series with liver [2], the “zonal necrosis of the liver produced” value is on record as “produce mainly zone 3 necrosis”.

As to `CC(=O)Oc1ccccc1C(=O)O` [Aspirin], the “Zone 3 Necrosis Pathology” value in the series on Rat primary hepatocytes (rat primary hepatocytes, 55.5 microM) is on record as “Absent”.

For `[N-]=[N+]=CC(=O)OC[C@H](N)C(=O)O` [Azaserine], the “Zone 3 Necrosis Pathology” value in the series on Rat primary hepatocytes (rat primary hepatocytes, 500 microM) is given as “Present”. The “Zone 3 Necrosis in vivo: Pathology Present” value in the series with rat livers [3] (High 100 mg/kg (ip)) is on record as 1,3 d.

As to `CC[N+](C)(C)Cc1ccccc1Br` [Bretylium], in the series on Rat primary hepatocytes, the “Zone 3 Necrosis Pathology” value was “Absent”.

As for `Brc1ccccc1` [Bromobenzene], in the series with rat livers [1] (male), the “Zone 3 Necrosis in vivo: Pathology Present” value was 12, 48 h. In addition, the “Zone 3 Necrosis Pathology” value in the series on Rat primary hepatocytes (rat primary hepatocytes, 3000 microM) is on record as “Present”.

`ClC(Cl)(Cl)Cl` [CCl4, carbon tetrachloride]: in the series on liver [2], the “zonal necrosis of the liver produced” value is given as “produce mainly zone 3 necrosis”.

`CO/N=C(\C(=O)N[C@@H]1C(=O)N2C(C(=O)O)=C(COC(N)=O)CS[C@H]12)c1ccco1` [Cefuroxime]: the “Zone 3 Necrosis Pathology” value with Rat primary hepatocytes (rat primary hepatocytes, 224 microM) is “Absent”.

In the case of `[Ce+3].[Cl-].[Cl-].[Cl-]` [Cerium (III) Chloride], the “Zone 3 Necrosis Pathology” value in the series with Rat primary hepatocytes (setting [9]) is on record as “Present”.

Take `ClC1=C(Cl)C2(Cl)C3C(Cl)C(Cl)CC3C1(Cl)C2(Cl)Cl` (stereo not shown) [Chlordane]: the “Zone 3 Necrosis Pathology” value in the series with Rat primary hepatocytes (rat primary hepatocytes, 8 microM) is given as “Absent”.

With `CCOC(=O)C(C)(C)Oc1ccc(Cl)cc1` [Clofibrate], the hypertrophy in vivo result with liver [4] is “produced hypertrophy in vivo”. The “Zone 3 Necrosis Pathology” value in the series on Rat primary hepatocytes (setting [7]) is on record as “Absent”.

In the case of `Clc1cccc(Cl)c1N=C1NCCN1` [Clonidine], the “Zone 3 Necrosis Pathology” value in the series on Rat primary hepatocytes is on record as “Absent”.

For the compound `O=c1ccc2ccccc2o1` [Coumarin], in the series with Rat primary hepatocytes (setting [6]), the “Zone 3 Necrosis Pathology” value was “Present”. In the series with rat livers [3] (High 150 mg/kg/d), the “Zone 3 Necrosis in vivo: Pathology Present” value is 3 d.

In the case of `C[C@@H]1C[C@H]2[C@@H]3CCC4=CC(=O)C=C[C@]4(C)[C@@]3(F)[C@@H](O)C[C@]2(C)[C@@]1(O)C(=O)CO` [Dexamethasone], in the series on Rat primary hepatocytes, the “Zone 3 Necrosis Pathology” value is given as “Absent”.

On to `CCN(CC)N=O` [Diethylnitrosamine], for which, in the series with rat livers [1], the “Zone 3 Necrosis in vivo: Pathology Present” value is 1, 3, 7 d. Besides, the “Zone 3 Necrosis Pathology” value in the series on Rat primary hepatocytes (rat primary hepatocytes, 300 microM) is on record as “Present”. Moreover, the hepatocellular carcinoma result in the series on liver [5] is “show evidence of producing hepatocellular carcinoma in rats”.

`CN(C)C=O` [Dimethylformamide]: the “Zone 3 Necrosis in vivo: Pathology Present” value with rat livers [1] (male) is 48 h. Further, the “Zone 3 Necrosis Pathology” value with Rat primary hepatocytes (rat primary hepatocytes, 5000 microM) is recorded as “Present”.

As for `CN(C)N=O` [Dimethylnitrosamine], in the series with rat livers [1], the “Zone 3 Necrosis in vivo: Pathology Present” value is on record as 7, 14 d. Also, in the series on Rat primary hepatocytes (setting [10]), the “Zone 3 Necrosis Pathology” value was “Present”.

With `c1cc[n+]2c(c1)-c1cccc[n+]1CC2` [Diquat], the “Zone 3 Necrosis in vivo: Pathology Absent” value in the series with rat livers [1] (male) is 6, 12, 24, 48 h.

For `CC(C)N(CCC(C(N)=O)(c1ccccc1)c1ccccn1)C(C)C` (stereo not shown) [Disopyramide], the “Zone 3 Necrosis Pathology” value in the series with Rat primary hepatocytes (rat primary hepatocytes, 3 microM) is reported as “Absent”.

For `COc1cccc2c1C(=O)c1c(O)c3c(c(O)c1C2=O)C[C@@](O)(C(=O)CO)C[C@@H]3O[C@H]1C[C@H](N)[C@H](O)[C@H](C)O1` [Doxorubicin], the “Zone 3 Necrosis Pathology” value in the series with Rat primary hepatocytes is “Absent”.

Take `CCC(=O)O[C@H]1[C@H](O[C@@H]2[C@@H](C)[C@H](O[C@H]3C[C@@](C)(OC)[C@@H](O)[C@H](C)O3)[C@@H](C)C(=O)O[C@H](CC)[C@@](C)(O)[C@H](O)[C@@H](C)C(=O)[C@H](C)C[C@@]2(C)O)O[C@H](C)C[C@@H]1N(C)C.CCCCCCCCCCCCOS(=O)(=O)O` [Erythromycin Estolate (EE), Erythromycin Estolate]: in the series on Rat primary hepatocytes (setting [9]), the “Zone 3 Necrosis Pathology” value is reported as “Absent”.

With `CCO` [Ethanol], the “Zone 3 Necrosis Pathology” value in the series on Rat primary hepatocytes is recorded as “Absent”.

Turning to `CCSCC[C@H](N)C(=O)O` [Ethionine], in the series with Rat primary hepatocytes (setting [10]), the “Zone 3 Necrosis Pathology” value is reported as “Present”.

Take `CCC1(C)CC(=O)NC1=O` (stereo not shown) [Ethosuximide]: the “Zone 3 Necrosis Pathology” value in the series on Rat primary hepatocytes (setting [10]) is “Absent”.

Regarding `OC(c1ccc(Cl)cc1)(c1cncnc1)c1ccccc1Cl` (stereo not shown) [Fenarimol], the “Zone 3 Necrosis Pathology” value in the series on Rat primary hepatocytes (setting [9]) is “Absent”.

Take `OC(Cn1cncn1)(Cn1cncn1)c1ccc(F)cc1F` [Fluconazole]: the “Zone 3 Necrosis Pathology” value in the series with Rat primary hepatocytes is “Absent”.

Regarding `CCCC[C@@H](C)[C@@H](OC(=O)C[C@@H](CC(=O)O)C(=O)O)[C@H](C[C@@H](C)C[C@H](O)CCCC[C@@H](O)C[C@H](O)[C@H](C)N)OC(=O)C[C@@H](CC(=O)O)C(=O)O` [Fumonisin B(1)], the hepatocellular carcinoma entry in the series on liver [5] is listed as “show evidence of producing hepatocellular carcinoma in rats”.

In the case of `NCC1(CC(=O)O)CCCCC1` [Gabapentin], the “Zone 3 Necrosis Pathology” value in the series on Rat primary hepatocytes (setting [11]) is “Absent”.

`CC(C)Cc1ccc(C(C)C(=O)O)cc1` (stereo not shown) [Ibuprofen]: in the series on Rat primary hepatocytes (setting [12]), the “Zone 3 Necrosis Pathology” value is “Absent”.

On to `CC(=O)N1CCN(c2ccc(OCC3COC(Cn4ccnc4)(c4ccc(Cl)cc4Cl)O3)cc2)CC1` (stereo not shown) [Ketoconazole], for which, in the series on Rat primary hepatocytes (setting [11]), the “Zone 3 Necrosis Pathology” value was “Absent”. Besides, the “Zone 3 Necrosis in vivo: Pathology Absent” value in the series with rat livers [3] (male, liver, oral, 10 mg/kg/d) is given as 1, 3 d.

Consider `CCC1(c2ccccc2)NC(=O)N(C)C1=O` (stereo not shown) [Mephenytoin], for which the “Zone 3 Necrosis Pathology” value with Rat primary hepatocytes (rat primary hepatocytes, 14.2 microM) is recorded as “Absent”.

Turning to `Nc1cc(N2CCCCC2)nc(N)[n+]1[O-]` [Minoxidil], in the series on Rat primary hepatocytes (rat primary hepatocytes, 0.166 microM), the “Zone 3 Necrosis Pathology” value is “Absent”.

Take `ClC1(Cl)C2(Cl)C3(Cl)C4(Cl)C(Cl)(Cl)C5(Cl)C3(Cl)C1(Cl)C5(Cl)C24Cl` (stereo not shown) [Mirex]: the “Zone 3 Necrosis Pathology” value in the series on Rat primary hepatocytes (setting [12]) was “Absent”.

For the compound `[Mo]` [Molybdenum], in the series with Rat primary hepatocytes (setting [12]), the “Zone 3 Necrosis Pathology” value is listed as “Present”. In the series with rat livers [3] (High 500 mg/kg/d), the “Zone 3 Necrosis in vivo: Pathology Present” value is 3 d.

Consider `C[C@H]1C(=O)O[C@@H]2CCN3CC=C(COC(=O)[C@](C)(O)[C@]1(C)O)[C@H]23` [Monocrotaline], for which, in the series on Rat primary hepatocytes (setting [7]), the “Zone 3 Necrosis Pathology” value is reported as “Present”.

For the compound `O=NN1CCCCC1` [N-Nitrosopiperidine], the “Zone 3 Necrosis Pathology” value in the series with Rat primary hepatocytes (rat primary hepatocytes, 3200 microM) is “Present”.

For `CCCCN(CCCC)N=O` [N-nitrosodibutylamine], the “Zone 3 Necrosis Pathology” value with Rat primary hepatocytes (rat primary hepatocytes, 200 microM) is “Absent”.

`O=NN1CCOCC1` [N-nitrosomorpholine]: the “Zone 3 Necrosis Pathology” value in the series with Rat primary hepatocytes (rat primary hepatocytes, 3750 microM) is reported as “Present”.

`O=NN(CCO)CCO` [Nitrosodiethanolamine]: the “Zone 3 Necrosis Pathology” value in the series on Rat primary hepatocytes (setting [10]) is on record as “Absent”.

Consider `Oc1c(Cl)c(Cl)c(Cl)c(Cl)c1Cl` [Pentachlorophenol], for which the “Zone 3 Necrosis Pathology” value in the series with Rat primary hepatocytes (rat primary hepatocytes, 19 microM) is listed as “Absent”.

Take `COc1cc2nc(N3CCN(C(=O)c4ccco4)CC3)nc(N)c2cc1OC` [Prazosin]: the “Zone 3 Necrosis Pathology” value in the series with Rat primary hepatocytes is listed as “Absent”.

As for `CC(=O)[C@H]1CC[C@H]2[C@@H]3CC=C4C[C@@H](O)CC[C@]4(C)[C@H]3CC[C@]12C` [Pregnenolone], the “Zone 3 Necrosis Pathology” value in the series with Rat primary hepatocytes (rat primary hepatocytes, 38 microM) was “Absent”.

For `c1ccncc1` [Pyridine], the “Zone 3 Necrosis in vivo: Pathology Present” value in the series on rat livers [1] (male) was 14 d. Besides, the “Zone 3 Necrosis Pathology” value in the series with Rat primary hepatocytes was “Present”.

In the case of `CO[C@H]1/C=C/O[C@@]2(C)Oc3c(C)c(O)c4c(O)c(c(/C=N/N5CCN(C)CC5)c(O)c4c3C2=O)NC(=O)/C(C)=C\C=C\[C@H](C)[C@H](O)[C@@H](C)[C@@H](O)[C@@H](C)[C@H](OC(C)=O)[C@@H]1C` [Rifampicin], in the series on Rat primary hepatocytes, the “Zone 3 Necrosis Pathology” value is on record as “Absent”.

Regarding `CC(=N)S` [Thioacetamide], the “Zone 3 Necrosis Pathology” value in the series on Rat primary hepatocytes (rat primary hepatocytes, 2000 microM) was “Present”.

Consider `NC(=S)c1ccccc1` [Thiobenzamide], for which, in the series on Rat primary hepatocytes (setting [8]), the “Zone 3 Necrosis Pathology” value was “Present”.
